Source: patent publication US11304957B2, “Substituted quinazolines for inhibiting kinase activity” (NeuPharma, Inc., priority 2013, dated 2022)

What was measured:
H1975 tumor xenograft = assay: Inhibition of tumor growth in H1975 xenograft model; format: in vivo, BALB/c female nude mice; conditions: Table 7, 60 mg/kg, oral, QD × 14; for Tumor Volume Pre-treatment: baseline
Method: H1975 cells were implanted in BALB/c female nude mice and grown as tumor xenografts. When tumors achieved 120-200 mm^3, mice were assigned into treatment and control groups using randomized block design based upon their tumor volumes. Each group contained 6 tumor-bearing mice. Tumors were measured twice weekly in two dimensions using a caliper, and the tumor volume was calculated from two-dimensional measurements using the equation V=0.5×a×b^2 where a and b are the long and short diameters of the tumor, respectively. Relative tumor volume (RTV) was defined as TVt/TVi, the ratio of the volume on a given day (TVt) and the volume at the start of treatment (TVi). Relative tumor growth rate (T/C) was defined as RTVT/RTVC, the ratio of relative tumor volume of treatment group (RTVT) and relative tumor volume of control group (RTVC) on a given day. Inhibition of tumor growth in a H1975 tumor xenograft model by some compounds is shown below in Table 6 and Table 7.

EGFR (ErbB1) T790M L858R = EGFR (ErbB1) T790M L858R (Homo sapiens (Human), UniProt P00533, L858R/T790M); assay: Z'-LYTE kinase inhibition assay, EGFR L858R/T790M; format: biochemical; conditions: for inhibition at 0.0137 µM: read-out: % inhibition EGFR L858R/T790M (Compound at 0.0137 μM)
EGFR (ErbB1) T790M L858R, sequence (P00533 25-1210 T790M/L858R): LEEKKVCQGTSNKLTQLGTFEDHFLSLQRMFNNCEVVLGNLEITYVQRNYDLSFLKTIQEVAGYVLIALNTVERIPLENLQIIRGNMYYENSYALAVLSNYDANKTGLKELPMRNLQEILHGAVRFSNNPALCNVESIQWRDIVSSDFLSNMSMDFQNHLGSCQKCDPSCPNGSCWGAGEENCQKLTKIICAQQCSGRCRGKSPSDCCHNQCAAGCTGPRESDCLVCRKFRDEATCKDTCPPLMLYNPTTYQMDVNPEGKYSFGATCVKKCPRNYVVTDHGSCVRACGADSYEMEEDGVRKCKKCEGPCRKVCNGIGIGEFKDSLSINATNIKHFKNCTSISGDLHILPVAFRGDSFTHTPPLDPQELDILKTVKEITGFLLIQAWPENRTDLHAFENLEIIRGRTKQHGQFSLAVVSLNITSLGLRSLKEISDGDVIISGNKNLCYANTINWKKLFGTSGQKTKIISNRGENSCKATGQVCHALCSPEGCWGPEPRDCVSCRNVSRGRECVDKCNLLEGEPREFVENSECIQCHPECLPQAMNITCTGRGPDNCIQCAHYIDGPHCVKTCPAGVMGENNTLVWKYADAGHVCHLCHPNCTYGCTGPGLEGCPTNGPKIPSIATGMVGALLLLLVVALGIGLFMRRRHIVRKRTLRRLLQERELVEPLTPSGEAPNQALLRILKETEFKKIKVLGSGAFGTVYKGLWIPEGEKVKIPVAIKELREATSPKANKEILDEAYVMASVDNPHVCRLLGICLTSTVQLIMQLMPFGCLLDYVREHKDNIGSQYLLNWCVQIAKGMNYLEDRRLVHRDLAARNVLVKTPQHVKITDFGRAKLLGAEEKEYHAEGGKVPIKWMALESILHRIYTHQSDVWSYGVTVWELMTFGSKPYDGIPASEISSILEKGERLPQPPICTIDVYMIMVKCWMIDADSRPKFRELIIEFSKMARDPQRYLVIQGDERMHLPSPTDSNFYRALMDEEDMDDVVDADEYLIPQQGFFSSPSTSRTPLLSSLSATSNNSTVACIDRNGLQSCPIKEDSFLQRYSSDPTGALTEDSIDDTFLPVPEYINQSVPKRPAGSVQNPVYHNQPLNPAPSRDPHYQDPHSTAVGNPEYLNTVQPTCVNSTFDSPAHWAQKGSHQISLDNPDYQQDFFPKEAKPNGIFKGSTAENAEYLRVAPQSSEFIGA
Method: Inhibitory activities of compounds against BTK, EGFR and EGFR mutants (EGFR L858R, EGFR T790M, EGFR L858R/T790M), FGFR1, FGFR2, JAK2, JAK3 and KDR were measured by Invitrogen using Z'-LYTE® Method as briefly described in the following. Test Compounds are screened in 1% DMSO (final) in the well. For 10 point titrations, 3-fold serial dilutions are conducted from the starting concentration. All ATP Solutions are diluted to a 4× working concentration in Kinase Buffer (50 mM HEPES pH 7.5, 0.01% BRIJ-35, 10 mM MgCl2, 1 mM EGTA). Peptide/Kinase Mixtures are diluted to a 2× working concentration in the appropriate Kinase Buffers as described below. (iv) Peptide/Kinase Mixtures for Measurement of EGFR (ErbB1) T790M L858R: The 2×EGFR (ErbB1) […] mixture is prepared in 50 mM HEPES pH 6.5, 0.01% BRIJ-35, 10 mM MgCl2, 1 mM EGTA, 0.02% NaN3. […] After the 1 hour Kinase Reaction incubation, 5 μL of a 1:64 dilution of Development Reagent B is added. Reaction starts by 30-second shaking of mixture consisting of 2.5 μL 4× test compound, 5 μL 2× kinase reaction mixture and 2.5 μL 4×ATP Solution on Bar-coded Corning, low volume NBS, black 384-well plate (Corning Cat. #3676). Then the mixture is incubated for 60-minute at room temperature for the kinase reaction, followed by addition of 5 μL of a 1:1024 dilution of development reagent A and 30-second plate shake. The mixture is then incubated for another 60-minute at room temperature for development reaction. Finally fluorescence is read by plate reader. To determine IC50 of a compound against EGFR, EGFR mutant and other kinases, a series of concentrations of the compound were tested for the inhibition.

EGFR (ErbB1) = EGFR (ErbB1) (Homo sapiens (Human), UniProt P00533); assay: Z'-LYTE kinase inhibition assay, EGFR (ErbB1); format: biochemical
EGFR (ErbB1), sequence (P00533 25-1210): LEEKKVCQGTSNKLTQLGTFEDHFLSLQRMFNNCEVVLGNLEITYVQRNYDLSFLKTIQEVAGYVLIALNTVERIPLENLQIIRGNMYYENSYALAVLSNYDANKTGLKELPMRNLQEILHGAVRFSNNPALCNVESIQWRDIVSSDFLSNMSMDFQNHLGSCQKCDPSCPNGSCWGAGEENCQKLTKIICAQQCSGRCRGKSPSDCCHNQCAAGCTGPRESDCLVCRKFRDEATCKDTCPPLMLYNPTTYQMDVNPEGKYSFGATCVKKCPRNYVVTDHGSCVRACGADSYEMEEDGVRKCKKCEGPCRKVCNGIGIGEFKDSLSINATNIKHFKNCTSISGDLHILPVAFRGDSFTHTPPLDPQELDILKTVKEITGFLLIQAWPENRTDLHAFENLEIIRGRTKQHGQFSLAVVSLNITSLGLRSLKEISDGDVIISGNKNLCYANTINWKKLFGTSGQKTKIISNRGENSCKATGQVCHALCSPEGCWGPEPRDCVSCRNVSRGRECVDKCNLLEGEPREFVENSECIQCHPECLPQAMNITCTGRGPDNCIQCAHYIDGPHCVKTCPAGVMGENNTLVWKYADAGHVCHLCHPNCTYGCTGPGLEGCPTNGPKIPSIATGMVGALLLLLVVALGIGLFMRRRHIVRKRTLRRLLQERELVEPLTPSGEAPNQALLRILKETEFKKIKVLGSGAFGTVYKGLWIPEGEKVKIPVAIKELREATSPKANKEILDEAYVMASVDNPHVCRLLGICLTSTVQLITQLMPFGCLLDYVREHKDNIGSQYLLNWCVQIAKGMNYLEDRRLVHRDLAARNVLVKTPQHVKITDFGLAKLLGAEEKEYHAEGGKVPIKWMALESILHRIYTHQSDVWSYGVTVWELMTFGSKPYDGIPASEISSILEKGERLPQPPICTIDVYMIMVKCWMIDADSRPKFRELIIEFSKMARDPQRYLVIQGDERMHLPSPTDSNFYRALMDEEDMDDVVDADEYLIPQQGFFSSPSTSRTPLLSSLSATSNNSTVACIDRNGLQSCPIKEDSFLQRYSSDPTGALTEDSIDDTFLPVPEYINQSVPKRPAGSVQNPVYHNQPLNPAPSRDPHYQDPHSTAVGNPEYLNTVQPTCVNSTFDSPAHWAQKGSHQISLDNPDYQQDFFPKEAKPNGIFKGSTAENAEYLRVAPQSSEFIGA
Method: Inhibitory activities of compounds against BTK, EGFR and EGFR mutants (EGFR L858R, EGFR T790M, EGFR L858R/T790M), FGFR1, FGFR2, JAK2, JAK3 and KDR were measured by Invitrogen using Z'-LYTE® Method as briefly described in the following. Test Compounds are screened in 1% DMSO (final) in the well. For 10 point titrations, 3-fold serial dilutions are conducted from the starting concentration. All ATP Solutions are diluted to a 4× working concentration in Kinase Buffer (50 mM HEPES pH 7.5, 0.01% BRIJ-35, 10 mM MgCl2, 1 mM EGTA). Peptide/Kinase Mixtures are diluted to a 2× working concentration in the appropriate Kinase Buffers as described below. (i) Peptide/Kinase Mixtures for Measurement of EGFR (ErbB1): The 2×EGFR (ErbB1)/[…] mixture is prepared in 50 mM HEPES pH 7.5, 0.01% BRIJ-35, 10 mM MgCl2, 4 mM MnCl2, 1 mM EGTA, 2 mM DTT. The final 10 μL Kinase Reaction consists of 1.1-5.25 ng EGFR (ErbB1) and 2 μM […] in 50 mM HEPES pH 7.5, 0.01% BRIJ-35, 10 mM MgCl2, 2 mM MnCl2, 1 mM EGTA, 1 mM DTT. After the 1 hour Kinase Reaction incubation, 5 μL of a 1:64 dilution of Development Reagent B is added. Reaction starts by 30-second shaking of mixture consisting of 2.5 μL 4× test compound, 5 μL 2× kinase reaction mixture and 2.5 μL 4×ATP Solution on Bar-coded Corning, low volume NBS, black 384-well plate (Corning Cat. #3676). […] Finally fluorescence is read by plate reader. […]

H1975 cells = assay: Inhibition of cancer cell growth, MTT assay, H1975; conditions: read-out: IC50 H1975, 72 h, EGFR L858R/T790M
Method: Inhibition of cell growth by compounds was measured using MTT assay (Mosmann, T., Journal of Immunological Methods, 1983, 65, 55-63). Tumor cell lines were purchased from ATCC (American Type Culture Collection, Manassas, Va.). All cell lines were maintained in RPMI 1640 (Hyclone) supplemented with 10% fetal bovine serum (FBS, Hyclone), glutamine (2 mM, Hyclone), and antibiotics (penicillin 100 U/mL and streptomycin 50 μg/mL) at 37° C. in a humidified atmosphere of 5% CO2 in air. Taxol (as a positive control, Sigma) and compounds were dissolved in DMSO (Sigma), and the final concentration of DMSO in the medium was 1%. Tumor cells were plated in 96-well plates at densities of about 4000 cells/well of a 96-well plate and allowed to adhere/grow for 24 h. They were then treated with various concentrations of drug for 72 h. […] The number of cells remaining after 72 h was compared to the number of viable cells at the time of compound addition by measuring the absorbance at 570 nm, allowing for the calculation of growth inhibition.
All concentrations of compounds were tested in triplicate and controls were averaged over 4 wells. IC50 was calculated by plotting the concentration of compound vs the percentage of inhibition in treated wells using GraphPad Prism 5. […]

Compound	Tumor Volume Post-treatment (H1975 tumor xenograft) [mm^3]	Tumor Volume Pre-treatment (H1975 tumor xenograft) [mm^3]	inhibition at 0.0137 µM (EGFR (ErbB1) T790M L858R) [%]	% inhibition EGFR (Compound at 0.041 μM) (EGFR (ErbB1))	% inhibition EGFR L858R/T790M (Compound at 0.0137 μM) (EGFR (ErbB1) T790M L858R)	IC50 (H1975 cells) [nM]
C=CC(=O)Nc1cccc(-c2cccc3cnc(Nc4ccc(N5CCN(C)CC5)c(F)c4F)nc23)c1 [Example C156, N-(3-(2-((2,3-difluoro-4-(4-methylpiperazin-1-yl)phenyl)amino)quinazolin-8-yl)phenyl)acrylamide]	594	232				
C=CC(=O)Nc1cccc(-c2cccc3cnc(Nc4ccc(N5CCN(CCO)CC5)cc4F)nc23)c1 [Example C147, N-(3-(2-((2-fluoro-4-(4-(2-hydroxyethyl)piperazin-1-yl)phenyl)amino)quinazolin-8-yl)phenyl)acrylamide]	898	240	> 50			
C=CC(=O)Nc1cccc(-c2cccc3cnc(Nc4ccc(N5CCN(CCO)CC5)c(F)c4F)nc23)c1 [Example C151, N-(3-(2-((2,3-difluoro-4-(4-(2-hydroxyethyl)piperazin-1-yl)phenyl)amino)quinazolin-8-yl)phenyl)acrylamide]	462	229	> 50			
C=CC(=O)Nc1cccc(-c2cccc3cnc(Nc4ccc(N5CCN(CC(N)=O)CC5)c(F)c4)nc23)c1 [Example C164]				+ (less than 50% inhibition)	+ (less than 50% inhibition)	100 to 500
C=CC(=O)Nc1cccc(-c2cccc3cnc(Nc4ccc(N5CCN(CC(N)=O)CC5)cc4F)nc23)c1 [Example C154]				+ (less than 50% inhibition)	+ (less than 50% inhibition)	100 to 500
